Where “and” joins values, the source holds several entries; their conditions need not be identical. Identical values can stand only once.
Columns and labels:
β-lactamase = β-lactamase cleavage of CCF2 in phosphate buffer, emission spectrum; assay type: biochemical; conditions: 50 mmolar phosphate buffer pH 7.0, excitation 405 nm
From the text: The emission spectrum of compound CCF2 in 50 mmolar phosphate buffer pH 7.0 before and after β-lactamase cleavage of the β-lactam ring. In the intact substrate, efficient energy transfer occurs from the 7-hydroxycoumarin moiety to the fluorescein moiety. Excitation of the substrate at 405 nm results in fluorescence emission at 515 nm (green) from the acceptor dye fluorescein. The energy transfer is disrupted when β-lactamase cleaves the β-lactam ring, thereby severing the link between the two dyes. Excitation of the products at 405 nm now results entirely in donor fluorescence emission at 448 nm (blue). The fluorescence emission from the donor moiety increases 25 fold upon β-lactam cleavage. The fluorescence at 515 nm is reduced by 3.5-fold, all of the remaining fluorescence originating from the 7-hydroxycoumarin as its emission spectrum extends into the green. Twenty-five-fold quenching of the donor in the substrate is equivalent to an efficiency of fluorescence energy transfer of 96%. This large fluorescence change upon β-lactam cleavage can readily be used to detect β-lactamase in the cytoplasm of living mammalian cells.

RTEM β-lactamase [1] = molecular target: T1, RTEM β-lactamase (Escherichia coli, UniProt P62593); assay: Pixel intensities of CCF2 loaded CHO cells transiently transfected with RTEM β-lactamase gene; assay type: cell-based; parameters: expressed in transfected cells; host or cells: CHO, transiently transfected; conditions: for pixel intensity, coumarin emission filter: 450 DF 65 filter
Method: (§1) Cells from cell lines of various mammalian origin were transiently transfected with a plasmid containing the RTEM β-lactamase gene under the control of a mammalian promoter. […] D. 1.10 to 48 hours after transfection cells were exposed to 5 micromolar CCF2/ac2AM2 for 1 to 6 hours. […] To quantitate the fluorescence measurements the cells were first viewed through coumarin (450 DF 65) and then fluorescein (515 EFLP) emission filters and pictures were recorded with a charge couple device camera. The average pixel intensities of CCF2 loaded transfected cells (blue) and controls (green) at coumarin and fluorescein wavelength in COS-7 (Table 2) and CHO (Table 3) cells are summarized; values for 4 representative cells for each population are given.

RTEM β-lactamase [2] = molecular target: T1, RTEM β-lactamase; assay: Pixel intensities of CCF2 loaded COS-7 cells transiently transfected with RTEM β-lactamase gene; assay type: cell-based; parameters: expressed in transfected cells; host or cells: COS-7, transiently transfected; conditions: for pixel intensity, coumarin emission filter: 450 DF 65 filter
Method: as §1

Gα15 or Gα16 expression = assay: Doxycyclin-inducible expression of Gα15 or Gα16 in COS-7 cells, Western blot; assay type: cell-based; conditions: COS-7 clones, tet operator/CMV promoter; doxycyclin 3 g/ml
From the text: The data summarized herein indicate that, although cells may not tolerate constitutive expression of promiscuous Gα proteins at high levels, they can tolerate expression of promiscuous Gα proteins from an inducible promoter. In this case, the genes for Gα15 and Gα16 were placed under the control of a cytomegalovirus (CMV) promoter that was operably linked to a heptamerized tet operator (Gossen and Bujard, 1992, Proc. Natl. Acad. Sci. 89:5547-5551). The plasmid encoding Gα and; the plasmid encoding Gα16 are identical, except sequences encoding Gα16 in lieu of Gα15. These plasmids were used to transfect COS-7 cells. These cells were co-transfected with a tetracyclin-dependent transactivator, rtTA, that is operably linked to a CMV promoter of a plasmid that carries a neomycin resistance gene (Gossen et al., 1995, Science 268:1766-1769).
Expression of the Gα genes was induced by contacting the cells with doxycyclin, a tetracyclin analog. In these experiments, the doxycyclin concentration was […], although doxycyclin concentrations ranging from […] can be used in order to regulate the level of gene expression. […] FIG. 3 illustrates that, in the presence of doxycyclin, expression of Gα15 or Gα16 is detectable as a band of approximately 43 kDa. […]

NFAT promoter = NFAT promoter β-lactamase reporter gene assay in Jurkat T lymphocytes; assay type: cell-based
From the text: These examples employ Jurkat T lymphocytes that were transfected with a genetic construct that expresses a reporter gene. The genetic construct includes a NFAT promoter, which is responsive to increased calcium levels and protein kinase C activation that result from activation of Gα protein. The NFAT promoter was operably linked to a β-lactamase reporter gene. To detect expression of the reporter gene, and thereby detect activation of Gα, the cells were contacted with the β-lactamase substrate CCF2ac2/AM2 (described herein), and fluorescence emission was detected according to previously described methods (Tsien et al., 1993, Trends in Cell Biology 3:242-245).
Two different compounds, ionomycin and phorbol myristate acetate (PMA), were used to optimize detection of expression of the reporter gene in these examples. In the first example, the dose response to ionomycin was measured. In this example, a set of samples of cells were contacted with PMA (at 3 nM) and the calcium ionophore ionomycin (at various concentrations, ranging from 0 to 3.0 μM). […]
In practicing these methods, it is preferable to add the ionophore to a level that is just below the threshold level for activation of the calcium-responsive promoter (e.g., the NFAT promoter). […] As is illustrated in FIG. 4A, fluorescence emission from a sample of the aforementioned cells can be measured by FRET. In this example, fluorescence emission was measured approximately 90 minutes after stimulation. Because the fluorogenic β-lactamase substrate undergoes a shift in fluorescence emission, fluorescence emission is measured as an emission ratio (450/530) when exciting at 400 nm. […]
In a second example, the dose response of PMA required to stimulate NFAT-driven expression was measured. […] As above, fluorescence emission was measured 90 minutes after stimulation. […]

T1 sequence (P62593 24-286 limits assumed): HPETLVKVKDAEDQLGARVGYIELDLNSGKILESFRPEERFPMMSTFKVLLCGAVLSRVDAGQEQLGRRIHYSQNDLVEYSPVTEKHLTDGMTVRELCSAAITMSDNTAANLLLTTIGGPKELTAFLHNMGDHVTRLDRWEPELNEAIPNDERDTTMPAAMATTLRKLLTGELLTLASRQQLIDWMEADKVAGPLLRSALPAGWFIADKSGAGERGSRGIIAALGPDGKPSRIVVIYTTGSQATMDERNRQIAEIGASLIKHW

O=C(CNC(=O)c1cc2cc(Cl)c(O)cc2oc1=O)N[C@@H]1C(=O)N2C(C(=O)O)=C(CSc3ccc4c(c3)C(=O)OC43c4ccc(O)cc4Oc4cc(O)ccc43)CS[C@H]12 [CCF2]
reduction of fluorescence at 515 nm upon β-lactam cleavage (β-lactamase): 3.5 fold | increase of fluorescence emission from the donor moiety upon β-lactam cleavage (β-lactamase; emission 448 nm): 25 fold | pixel intensity, coumarin emission filter (RTEM β-lactamase [1]; blue cell (transfected)): 98 and 70 and 76 and 56 | pixel intensity, Fluorescein emission filter (RTEM β-lactamase [1]; blue cell (transfected), 515 EFLP filter): 112 and 113 and 92 and 67 | pixel intensity, coumarin emission filter (RTEM β-lactamase [1]; green cell (control)): 9 and 7 | pixel intensity, coumarin emission filter (RTEM β-lactamase [2]; COS-7, blue cell (transfected)): 22 and 27 and 34 and 31 | pixel intensity, Fluorescein emission filter (RTEM β-lactamase [2]; COS-7, blue cell (transfected), 515 EFLP filter): 33 and 20 and 23 and 31 | pixel intensity, coumarin emission filter (RTEM β-lactamase [2]; COS-7, green cell (control)): 4 and 5 and 3

C[C@H]1c2cccc(O)c2C(O)=C2C(=O)[C@]3(O)C(O)=C(C(N)=O)C(=O)[C@@H](N(C)C)[C@@H]3[C@@H](O)[C@@H]21 [doxycyclin]
Gα proteins produced upon induction of gene expression (Gα15 or Gα16 expression): Up to 10,000 Gα proteins/cell

CCCCCCCCCCCCCC(=O)O[C@@H]1[C@@H](C)[C@@]2(O)[C@@H](C=C(CO)C[C@]3(O)C(=O)C(C)=C[C@@H]23)[C@@H]2C(C)(C)[C@]12OC(C)=O [PMA, phorbol myristate acetate]
effect on fluorescence emission from the cell sample (NFAT promoter; 0 to 30 nM with 1 μM ionomycin, 90 minutes after stimulation): increased fluorescence emission | concentration preferable for enhancing detection of expression of a reporter gene (NFAT promoter; with 1 μM ionomycin, 90 minutes after stimulation): approximately 3 nM

C[C@H](CCC(=O)O)C[C@H](C)C[C@H](C)C(=O)/C=C(\O)[C@H](C)C[C@H](C)C/C=C/[C@@H](C)[C@@H](O)[C@@H](C)[C@@H](O)C[C@@H]1CC[C@@](C)([C@H]2CC[C@@](C)([C@@H](C)O)O2)O1 [ionomycin]
concentration raising intracellular calcium to just below the threshold level for activation of the calcium-responsive promoter (NFAT promoter; with PMA at 3 nM, emission ratio 450/530, about 90 minutes after stimulation): approximately 0.3 μM

— US20060008855A1, “Promiscuous G-protein compositions and their use” (Invitrogen Corporation, a Delaware corporation, priority 1996, published 2006)
